From patent US7511119B2, “PRAME peptide analogues” (MannKind Corporation, priority 2005, dated 2009)
Square brackets hold non-standard residues; d marks the D form. Peptide text beside a SMILES is read from it. Phe(4-F) = N[C@@H](Cc1ccc(F)cc1)C(=O)O

System: T cell lines against natural epitope SSX-241-49
Experiment: Cross-reactivity and functional avidity: IFN-gamma production by T cell lines raised against natural SSX-2 41-49;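 also: analogs presented ex vivo by competent APCs to T cells specific for the non-mutated epitope, scored by lowest activating concentration, peak cytokine effect and concentration at that peak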
Assay type: cell-based, HHD transgenic mice
Conditions: T cells raised to native peptide tested on analogs; footnote * and unit not given

| Compound | Cross-reactivity and fct avidity (native to analogs)* |
| --- | --- |
| CC[C@H](NC(=O)[C@@H](N)CCCCN)C(=O)N[C@@H](CO)C(=O)N[C@@H](CCC(=O)O)C(=O)N[C@@H](CCCCN)C(=O)N[C@H](C(=O)N[C@@H](Cc1ccccc1)C(=O)N[C@@H](Cc1ccc(O)cc1)C(=O)N[C@H](C(=O)O)C(C)C)[C@@H](C)CC [SSX2 41-49 (A42(Abu)), KAbuSEKIFYV] | 0.3 |
| CC[C@H](C)[C@H](NC(=O)[C@H](CCCCN)NC(=O)[C@H](CCC(=O)O)NC(=O)[C@H](CO)NC(=O)C(C)(C)NC(=O)[C@@H](N)CCCCN)C(=O)N[C@@H](Cc1ccccc1)C(=O)N[C@@H](Cc1ccc(O)cc1)C(=O)N[C@H](C(=O)O)C(C)C [SSX2 41-49 (A42(Aib)), KAibSEKIFYV] | 3 |
| CC[C@H](C)[C@H](NC(=O)[C@H](CCCCN)NC(=O)[C@H](CCC(=O)O)NC(=O)[C@H](CO)NC(=O)[C@H](Cc1ccc2ccccc2c1)NC(=O)[C@@H](N)CCCCN)C(=O)N[C@@H](Cc1ccccc1)C(=O)N[C@@H](Cc1ccc(O)cc1)C(=O)N[C@H](C(=O)O)C(C)C [SSX2 41-49 (A42(Nal-2)), KNal-2SEKIFYV] | 3 |
| CCCC[C@H](NC(=O)[C@@H](N)CCCCN)C(=O)N[C@@H](CO)C(=O)N[C@@H](CCC(=O)O)C(=O)N[C@@H](CCCCN)C(=O)N[C@H](C(=O)N[C@@H](Cc1ccccc1)C(=O)N[C@@H](Cc1ccc(O)cc1)C(=O)N[C@H](C(=O)O)C(C)C)[C@@H](C)CC [SSX2 41-49 (A42(Nle)), KNleSEKIFYV] | 0.1 |
| CCC[C@H](NC(=O)[C@@H](N)CCCCN)C(=O)N[C@@H](CO)C(=O)N[C@@H](CCC(=O)O)C(=O)N[C@@H](CCCCN)C(=O)N[C@H](C(=O)N[C@@H](Cc1ccccc1)C(=O)N[C@@H](Cc1ccc(O)cc1)C(=O)N[C@H](C(=O)O)C(C)C)[C@@H](C)CC [SSX2 41-49 (A42(Nva)), KNvaSEKIFYV] | 0.1 |
| CC[C@H](C)[C@H](NC(=O)[C@H](CCCCN)NC(=O)[C@H](CCC(=O)O)NC(=O)[C@H](CO)NC(=O)[C@H](CC(C)C)NC(=O)[C@@H](N)CCCCN)C(=O)N[C@@H](Cc1ccccc1)C(=O)N[C@@H](Cc1ccc(O)cc1)C(=O)N[C@H](C(=O)O)C(C)C [SSX2 41-49 (A42L)] | 0.03 |
| CC[C@H](C)[C@H](NC(=O)[C@H](CCCCN)NC(=O)[C@H](CCC(=O)O)NC(=O)[C@H](CO)NC(=O)[C@H](CC(C)C)NC(=O)[C@H](N)CCCCN)C(=O)N[C@@H](Cc1ccccc1)C(=O)N[C@@H](Cc1ccc(O)cc1)C(=O)N[C@H](C(=O)O)C(C)C [SSX2 41-49 (K41(D-Lys), A42L)] | 10 |
| CC[C@H](C)[C@H](NC(=O)[C@H](CCCCN)NC(=O)[C@H](CCC(=O)O)NC(=O)[C@H](CO)NC(=O)[C@@H](NC(=O)[C@H](N)CCCCN)C(C)C)C(=O)N[C@@H](Cc1ccccc1)C(=O)N[C@@H](Cc1ccc(O)cc1)C(=O)N[C@H](C(=O)O)C(C)C [SSX2 41-49 (K41(D-Lys), A42V)] | 10 |
| CC[C@H](C)[C@H](NC(=O)[C@H](CCCCN)NC(=O)[C@H](CCC(=O)O)NC(=O)[C@H](CO)NC(=O)[C@H](C)NC(=O)[C@@H](N)Cc1ccc(F)cc1)C(=O)N[C@@H](Cc1ccccc1)C(=O)N[C@@H](Cc1ccc(O)cc1)C(=O)N[C@H](C(=O)O)C(C)C [SSX2 41-49 (K41(Phe-4F))] (H-[Phe(4-F)]ASEKIFYV-OH) | 3 |
| CC[C@H](C)[C@H](NC(=O)[C@H](CCCCN)NC(=O)[C@H](CCC(=O)O)NC(=O)[C@H](CO)NC(=O)[C@H](CC(C)C)NC(=O)[C@@H](N)Cc1ccccc1)C(=O)N[C@@H](Cc1ccccc1)C(=O)N[C@@H](Cc1ccc(O)cc1)C(=O)N[C@H](C(=O)O)C(C)C [SSX2 41-49 (K41F, A42L)] | 0.3 |
| CC[C@H](C)[C@H](NC(=O)[C@H](CCCCN)NC(=O)[C@H](CCC(=O)O)NC(=O)[C@H](CO)NC(=O)[C@H](CCSC)NC(=O)[C@@H](N)Cc1ccccc1)C(=O)N[C@@H](Cc1ccccc1)C(=O)N[C@@H](Cc1ccc(O)cc1)C(=O)N[C@H](C(=O)O)C(C)C [SSX2 41-49 (K41F, A42M)] | 3 |
| CC[C@H](C)[C@H](NC(=O)[C@H](CCCCN)NC(=O)[C@H](CO)NC(=O)[C@H](CO)NC(=O)[C@@H](NC(=O)[C@@H](N)Cc1ccccc1)C(C)C)C(=O)N[C@@H](Cc1ccccc1)C(=O)N[C@@H](Cc1ccc(O)cc1)C(=O)N[C@H](C(=O)O)C(C)C [SSX2 41-49 (K41F, A42V, E44S)] | >10 |
| CC[C@H](C)[C@H](NC(=O)[C@H](CCCCN)NC(=O)[C@@H](NC(=O)[C@H](CO)NC(=O)[C@@H](NC(=O)[C@@H](N)Cc1ccccc1)C(C)C)[C@@H](C)O)C(=O)N[C@@H](Cc1ccccc1)C(=O)N[C@@H](Cc1ccc(O)cc1)C(=O)N[C@H](C(=O)O)C(C)C [SSX2 41-49 (K41F, A42V, E44T)] | >10 |
| CC[C@H](C)[C@H](NC(=O)[C@H](CCCCN)NC(=O)[C@H](CCC(=O)O)NC(=O)[C@H](CO)NC(=O)[C@@H](NC(=O)[C@@H](N)Cc1ccccc1)C(C)C)C(=O)N[C@@H](Cc1ccccc1)C(=O)N[C@@H](Cc1ccc(O)cc1)C(=O)N[C@@H](C)C(=O)O [SSX2 41-49 (K41F, A42V, V49A)] | 1 |
| CC[C@H](NC(=O)[C@H](Cc1ccc(O)cc1)NC(=O)[C@H](Cc1ccccc1)NC(=O)[C@@H](NC(=O)[C@H](CCCCN)NC(=O)[C@H](CCC(=O)O)NC(=O)[C@H](CO)NC(=O)[C@@H](NC(=O)[C@@H](N)Cc1ccccc1)C(C)C)[C@@H](C)CC)C(=O)O [SSX2 41-49 (K41F, A42V, V49Abu)] | 1 |
| CC[C@H](C)[C@H](NC(=O)[C@H](CCCCN)NC(=O)[C@H](CCC(=O)O)NC(=O)[C@H](CO)NC(=O)[C@@H](NC(=O)[C@@H](N)Cc1ccccc1)C(C)C)C(=O)N[C@@H](Cc1ccccc1)C(=O)N[C@@H](Cc1ccc(O)cc1)C(=O)N[C@@H](CC(C)C)C(=O)O [SSX2 41-49 (K41F, A42V, V49L)] | >10 |
| CC[C@H](C)[C@H](NC(=O)[C@H](CCCCN)NC(=O)[C@H](CCC(=O)O)NC(=O)[C@H](CO)NC(=O)[C@@H](NC(=O)[C@@H](N)Cc1ccccc1)C(C)C)C(=O)N[C@@H](Cc1ccccc1)C(=O)N[C@@H](Cc1ccc(O)cc1)C(=O)N(C)[C@H](C(=O)O)C(C)C [SSX2 41-49 (K41F, A42V, V49MeVal)] | 10 |
| CCCC[C@H](NC(=O)[C@H](Cc1ccc(O)cc1)NC(=O)[C@H](Cc1ccccc1)NC(=O)[C@@H](NC(=O)[C@H](CCCCN)NC(=O)[C@H](CCC(=O)O)NC(=O)[C@H](CO)NC(=O)[C@@H](NC(=O)[C@@H](N)Cc1ccccc1)C(C)C)[C@@H](C)CC)C(=O)O [SSX2 41-49 (K41F, A42V, V49Nle)] | >10 |
| CCC[C@H](NC(=O)[C@H](Cc1ccc(O)cc1)NC(=O)[C@H](Cc1ccccc1)NC(=O)[C@@H](NC(=O)[C@H](CCCCN)NC(=O)[C@H](CCC(=O)O)NC(=O)[C@H](CO)NC(=O)[C@@H](NC(=O)[C@@H](N)Cc1ccccc1)C(C)C)[C@@H](C)CC)C(=O)O [SSX2 41-49 (K41F, A42V, V49Nva)] | 0.1 |
